Tested on: S. aureus
Assay: Tolerance of S. aureus towards ELF phosphate in S. aureus plating media
Assay type: cell-based
Details: for Colony Growth: visual inspection relative to media without ELF phosphate
Description: Varying concentrations of ELF® phosphate in S. aureus plating media were used to determine the effect on growth and sensitivity of S. aureus to ELF® phosphate. Colony growth in the presence of ELF® phosphate was compared to colony growth in media without ELF® phosphate.

Compound: O=P(O)(O)O.O=c1[nH]c(-c2cc(Cl)ccc2O)nc2ccc(Cl)cc12 [ELF ® Phosphate, 6-chloro-2-(5-chloro-2-hydroxyphenyl)-quinazolin-4(3H)-one phosphate]
- Colony Growth (ELF phosphate 0.080 g/L): Normal
- Colony Growth (ELF phosphate 0.200 g/L): Normal
- Colony Growth (ELF phosphate 0.400 g/L): Normal
- Colony Growth (ELF phosphate 0.600 g/L): Normal
- effect of concentration on growth (S. aureus plating media, 0.080-0.600 g/L): no effect on growth
- inhibition of the growth of S. aureus strains (concentrations of 500 mg/L and higher): do not significantly inhibit
